Assay results reported in ChEMBL document CHEMBL5029160, “An Activity-Based Probe for Cathepsin K Imaging with Excellent Potency and Selectivity” (J Med Chem, 2021).
Each block holds one compound with its values, some of them ahead of it. The source made the active and inactive calls. The rule behind the calls is not given here.

How the values were obtained:
[1] = biological target: Cathepsin B (Homo sapiens) (UniProt P07858); experiment: Inhibition of human cathepsin B assessed as residual activity using Z-Arg-Arg-pNA as substrate incubated for 60 mins by fluorometric assay; parameters: concentration or dose not given beside the values
[2] = biological target: Cathepsin S (Homo sapiens) (UniProt P25774); experiment: Inhibition of human cathepsin S assessed as ratio of Kinact/Ki using Z-Phe-Val-Arg-pNA as substrate incubated for 60 mins by fluorometric assay
[3] = biological target: Procathepsin L (Homo sapiens) (UniProt P07711); experiment: Inhibition of human cathepsin L assessed as residual activity using Z-Phe-Arg-pNA as substrate incubated for 60 mins by fluorometric assay; parameters: concentration or dose not given beside the values
[4] = biological target: T1, Cathepsin K (Homo sapiens) (UniProt P43235); experiment: Inhibition of human cathepsin K assessed as ratio of Kinact/Ki using Z-Phe-Arg-pNA as substrate incubated for 60 mins by fluorometric assay
T1 sequence (whole entry): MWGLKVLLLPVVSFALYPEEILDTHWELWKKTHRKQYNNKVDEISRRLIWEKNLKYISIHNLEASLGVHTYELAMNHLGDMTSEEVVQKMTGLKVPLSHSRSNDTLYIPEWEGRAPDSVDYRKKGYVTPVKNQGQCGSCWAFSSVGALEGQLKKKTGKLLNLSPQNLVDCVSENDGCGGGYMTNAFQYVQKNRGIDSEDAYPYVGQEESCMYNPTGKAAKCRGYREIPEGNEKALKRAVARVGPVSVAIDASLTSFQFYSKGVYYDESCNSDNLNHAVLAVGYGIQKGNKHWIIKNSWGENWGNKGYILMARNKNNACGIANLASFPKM

[5] = biological target: Cathepsin S (Homo sapiens) (UniProt P25774); experiment: Inhibition of human cathepsin S assessed as residual activity using Z-Phe-Val-Arg-pNA as substrate incubated for 60 mins by fluorometric assay
[6] = biological target: Procathepsin L (Homo sapiens) (UniProt P07711); experiment: Inhibition of human cathepsin L assessed as ratio of Kinact/Ki using Z-Phe-Arg-pNA as substrate incubated for 60 mins by fluorometric assay
[7] = biological target: Cathepsin B (Homo sapiens) (UniProt P07858); experiment: Inhibition of human cathepsin B assessed as ratio of Kinact/Ki using Z-Arg-Arg-pNA as substrate incubated for 60 mins by fluorometric assay
[8] = biological target: T1, Cathepsin K (Homo sapiens); experiment: Binding affinity to Cathepsin K in human U2OS cells at 1 uM pretreated with E-64d for 1 hr followed by compound addition and measured after 24 hrs by SDS-PAGE; assay type: cell-based
[9] = biological target: T1, Cathepsin K (Homo sapiens); experiment: Binding affinity to recombinant human Cathepsin K at 5 uM pretreated with E64/K11777 pan-cathepsin inhibitor s for 15 mins followed by compound addition and measured after 1 hr by SDS-PAGE; conditions: time 75.0 min
[10] = biological target: T1, Cathepsin K (Homo sapiens); experiment: Binding affinity to Cathepsin K in human U2OS cells at 1 uM measured after 4 hrs by SDS-PAGE; assay type: cell-based
[11] = biological target: T1, Cathepsin K (Homo sapiens); experiment: Binding affinity to Cathepsin K in human U2OS cells at 1 uM measured after 16 hrs by SDS-PAGE; assay type: cell-based
[12] = biological target: T1, Cathepsin K (Homo sapiens); experiment: Binding affinity to Cathepsin K in human U2OS cells at 1 uM measured after 24 hrs by SDS-PAGE; assay type: cell-based
[13] = biological target: T1, Cathepsin K (Homo sapiens); experiment: Inhibition of recombinant human Cathepsin K at 5 uM using Z-Phe-Arg-pNA as substrate incubated for 1 hr in presence of HEK293 cell lysate by SDS-PAGE; assay type: subcellular
[14] = Drug uptake in human U2OS cells […] at 1 uM after 16 hrs by LysoTracker staining based fluorescence microscopy; assay type: ADME, subcellular

Sequence of Procathepsin L (Homo sapiens) (P07711 114-333 limits assumed): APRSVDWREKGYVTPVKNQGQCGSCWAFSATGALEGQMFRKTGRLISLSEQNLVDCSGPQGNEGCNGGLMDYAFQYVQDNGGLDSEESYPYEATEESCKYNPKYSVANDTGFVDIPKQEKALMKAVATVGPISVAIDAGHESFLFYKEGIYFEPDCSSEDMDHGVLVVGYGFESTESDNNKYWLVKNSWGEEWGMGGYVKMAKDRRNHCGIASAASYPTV
Sequence of Cathepsin S (Homo sapiens) (P25774 115-331 limits assumed): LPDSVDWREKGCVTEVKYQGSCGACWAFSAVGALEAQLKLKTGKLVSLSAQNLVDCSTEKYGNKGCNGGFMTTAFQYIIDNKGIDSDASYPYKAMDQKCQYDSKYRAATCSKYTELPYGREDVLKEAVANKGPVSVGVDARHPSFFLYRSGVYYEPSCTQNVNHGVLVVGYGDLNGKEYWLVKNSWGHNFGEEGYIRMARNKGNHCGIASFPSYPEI

Compound: CC(C)C[C@H](NC(=O)c1cc2cc3c4c(c2oc1=O)CCCN4CCC3)C(=O)NC/C=C/C(=O)N(Cc1ccccc1)Cc1ccccc1
- Activity [1]: 96%
- Activity [5]: 80%
- Ratio [6]: 2820 M⁻¹ s⁻¹
- Activity [3]: 89%
- Ratio [4]: 9550 M⁻¹ s⁻¹
- Ratio [7]: 365 M⁻¹ s⁻¹

Compound: CCCC[C@H](NC(=O)CCCC[N+]1=C(/C=C/C=C/C=C2/N(C)c3ccccc3C2(C)C)C(C)(C)c2ccccc21)C(=O)N[C@@H](CC(C)C)C(=O)NC/C=C/C(=O)N(Cc1ccccc1)Cc1ccccc1
- Activity [1]: 96%
- Ratio [2]: 556 M⁻¹ s⁻¹
- Activity [3]: 91%
- Ratio [4]: 17900 M⁻¹ s⁻¹

Compound: CC(C)C[C@H](NC(=O)c1ccc(-c2cc3cc4c5c(c3oc2=O)CCCN5CCC4)cc1)C(=O)NC/C=C/C(=O)N(Cc1ccccc1)Cc1ccccc1
- Ratio [2]: 1510 M⁻¹ s⁻¹
- Ratio [4]: 84200 M⁻¹ s⁻¹

The remaining lines, values ahead:

- Activity [1]: 91%
- Ratio [2]: 291 M⁻¹ s⁻¹
- Activity [3]: 83%
- Ratio [4]: 10600 M⁻¹ s⁻¹
Compound: CC(C)C[C@H](NC(=O)OC(C)(C)C)C(=O)NC/C=C/C(=O)N(Cc1ccccc1)Cc1ccccc1

- Activity [1]: 96%
- Activity [8]: inactive
- Ratio [2]: 505 M⁻¹ s⁻¹
- Activity [9]: inactive
- Activity [10]: Active
- Activity [3]: 89%
- Ratio [4]: 35300 M⁻¹ s⁻¹
- Activity [11]: Active
- Activity [12]: Active
- inhibition [13]: Active
- Drug uptake [14]: Active
Compound: CC(C)C[C@H](NC(=O)CCCC[N+]1=C(/C=C/C=C/C=C2/N(C)c3ccccc3C2(C)C)C(C)(C)c2ccccc21)C(=O)NC/C=C/C(=O)N(Cc1ccccc1)Cc1ccccc1.[Cl-]

- Activity [1]: 91%
- Ratio [2]: 485 M⁻¹ s⁻¹
- Activity [3]: 76%
- Ratio [4]: 6440 M⁻¹ s⁻¹
Compound: CCCC[C@H](NC(=O)OC(C)(C)C)C(=O)N[C@@H](CC(C)C)C(=O)NC/C=C/C(=O)N(Cc1ccccc1)Cc1ccccc1
